# Measured values: publication PMC13266999, “Designing Antibiotics with Inherent Resistance to Efflux as a Strategy to Revive Discovery against Multidrug-Resistant Pathogens” (Journal of Medicinal Chemistry, 2026)
# Key:
# [1] = system: S. aureus; assay: MIC (microbroth dilution); assay type: cell-based, Staphylococcus aureus; details: for MIC: Staphylococcus aureus
# How it was run: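 Overnight stationary-phase cultures back-diluted and tested by broth microdilution with 2-fold compound series. MIC is lowest concentration with no visible growth, with OD600 also read. Separate runs included polymyxin B nonapeptide at 30 μg/mL final as outer-membrane permeabilizer.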
# [2] = Pharmacokinetics; details: male, ICR (CD-1), mouse, plasma
# Description: Pharmacokinetic studies were performed in male ICR (CD-1) mice obtained from Charles River, UK. […] Blood samples were collected from the caudal vein into anticoagulant-treated capillaries at predetermined time points up to 8 h, with terminal cardiac puncture at 8 h. Plasma samples were stored at −80 °C until analysis. […] A compound-specific LC-MS/MS method was developed for each test article using matrix-matched calibrators following protein precipitation of samples.
# [3] = system: E. coli; assay: MIC (microbroth dilution); assay type: cell-based; details: Escherichia coli
# Description: All bacteria were maintained on tryptic soy agar (TSA), except Streptococcus spp., which were maintained on Columbia agar plates containing 5% horse blood. […] Bacteria were grown to stationary phase in liquid culture overnight, with shaking at 200 rpm, before being back diluted to the relevant starting concentration for each assay below. MICs were measured by the microbroth dilution method. […] Absorbance at OD600 was read on a CLARIOstar spectrophotometer (BMG Labtech) and the MIC was defined as the minimum concentration of compound where no visible growth was detected. […] MICs were also performed in the presence of the outer membrane permeator, polymyxin b nonapeptide (PMBN) following the same MIC method but with the following variation. The 2-fold dilution series of compound was prepared as above, then 50 μL of PMBN at a final concentration of 30 μg/mL was added to relevant wells, while 50 μL/well of blank media was added to the remaining wells. Bacteria were then added at 50 μL/well for a starting concentration as above. […] The MICs were read and defined as above. All animal procedures were performed by the contract research organization Pharmacology Discovery Services Taiwan in accordance with the Guide for the Care and Use of Laboratory Animals. The procedures were approved by the Institutional Ethics Committee of Pharmacology Discovery Services Taiwan, Ltd. (approval no. AB127662), in compliance with animal welfare legislation in Taiwan.
# [4] = system: S. aureus; assay: Serial passaging, MIC of adapted strains; assay type: cell-based; details: Staphylococcus aureus
# Description: MICs were performed on the first and 10th passage.
compound,measurement,setting,value
"Cc1cc(C)nc(N[C@@H]2CCN(c3c(F)cc4c(=O)c(C(=O)O)cn5c4c3OC[C@@H]5C)C2)n1 [Compound 50, (S)-10-((R)-3-((4,6-Dimethylpyrimidin-2-yl)amino)pyrrolidin-1-yl)-9-fluoro-3-methyl-7-oxo-2,3-dihydro-7H-[1,4]oxazino[2,3,4-ij]quinoline-6-carboxylic acid]",MIC,"[1]; MRSA / VISA, MRSA VISA (CDC AR-BANK #0215), read-out: MIC",16 µg/mL
same,MIC,"[1]; MRSA / VISA, MRSA VISA (CDC AR-BANK #0216), read-out: MIC",0.5 µg/mL
same,MIC,"[1]; MRSA / VISA, MRSA VISA (CDC AR-BANK #0217), read-out: MIC",1 µg/mL
same,MIC,"[1]; MRSA / VISA, MRSA VISA (Mu50), read-out: MIC",2 µg/mL
same,MIC,"[1]; MRSA / VISA, MRSA VISA Mupirocin-R (CDC #0218), read-out: MIC",1 µg/mL
same,MIC,"[1]; MRSA, MRSA DAP-NS (ECL 2963621), read-out: MIC",0.25 µg/mL
same,MIC,"[1]; MRSA, VanA MRSA (VRS1), read-out: MIC",1 µg/mL
same,MIC,"[1]; MRSA, VanA MRSA (VRS2), read-out: MIC",0.5 µg/mL
same,MIC,"[1]; MRSA, VanA MRSA (VRS3a), read-out: MIC",0.5 µg/mL
same,MIC,"[1]; MSSA / VISA, MSSA VISA (CDC #0222), read-out: MIC",0.03 µg/mL
same,MIC,"[1]; NCTC13277, NCTC 13277, + 4% albumin, read-out: MIC",4 µg/mL
same,MIC,"[1]; NCTC13616, NCTC 13616, + 4% albumin, read-out: MIC",2 µg/mL
same,MIC,"[1]; NRS 3 / VISA, VISA (NRS3), read-out: MIC",0.5 µg/mL
same,MIC,"[1]; NRS 12 / VISA, VISA (NRS12), read-out: MIC",0.06 µg/mL
same,MIC,"[1]; NRS 56 / VISA, VISA (NRS56), read-out: MIC",1 µg/mL
same,MIC,"[1]; NRS72, Sanger-476, NRS72, read-out: MIC",0.03 µg/mL
same,MIC,"[1]; NRS157, NRS157, read-out: MIC",0.03 µg/mL
same,MIC,"[1]; SA-1199, read-out: MIC",0.016 µg/mL
same,MIC,[1]; SA-1199B (NorA-overexpressing),0.016 µg/mL
same,MIC,"[1]; VRSA, VRSA (ECL 2963646), read-out: MIC",0.5 µg/mL
same,MIC,"[1]; VanA (VRS11b), read-out: MIC",2 µg/mL
same,MIC,"[1]; majority of MSSA and MRSA isolates, read-out: MIC",≤ 0.0312 µg/mL
same,fold increase in MIC in the presence of 4% albumin,[1]; across the strain panel,2- to 8 fold
same,AUC(0-inf),"[2]; iv, 5 mg/kg",33100 ng·h/mL
same,clearance,"[2]; iv, 5 mg/kg",2.52 mL/min/kg
same,Cmax,"[2]; po, 20 mg/kg",14500 ng/mL
same,Tmax,"[2]; po, 20 mg/kg",30 min
same,bioavailability,"[2]; po, 20 mg/kg",83%
same,MIC,[3]; 319238/UR,32 µg/mL
same,MIC,[3]; LEC006,0.5 µg/mL
same,MIC,[3]; LEC007,0.25 µg/mL
same,MIC,[3]; LEC077,8 µg/mL
same,MIC,[3]; LEC081,8 µg/mL
same,MIC,"[3]; NCTC10418, NCTC 10418",0.125 µg/mL
same,MIC,"[3]; NCTC11954, NCTC 11954",0.25 µg/mL
same,MIC,"[3]; NCTC12241, NCTC 12241",0.25 µg/mL
same,MIC,"[3]; NCTC12923, NCTC 12923",1 µg/mL
same,MIC,[4]; 1199B WT,0.03 µg/mL
same,MIC,[4]; 1199B adapted to 4 x MIC of Compound 7,≤ 0.015 µg/mL
same,MIC,[4]; 1199B adapted to 4 x MIC of Compound 46,0.125 µg/mL
same,MIC,[4]; 1199B adapted to 4 x MIC of Compound 50,0.25 µg/mL
same,MIC,[4]; 1199B adapted to 4 x MIC of Compound 51,0.03 µg/mL
same,MIC,[4]; 1199 WT,0.015 µg/mL
same,MIC,[4]; 1199 adapted to 4 x MIC of Compound 7,0.03 µg/mL
same,MIC,[4]; 1199 adapted to 4 x MIC of Compound 46,≤ 0.015 µg/mL
same,MIC,[4]; 1199 adapted to 4 x MIC of Compound 50,0.125 µg/mL
same,MIC,[4]; 1199 adapted to 4 x MIC of Compound 51,≤ 0.015 µg/mL
same,MIC,"[4]; NCTC13616, NCTC 13616 WT",0.125 µg/mL
same,MIC,"[4]; NCTC13616, NCTC 13616 adapted to 4 x MIC of Compound 7",0.5 µg/mL
same,MIC,"[4]; NCTC13616, NCTC 13616 adapted to 4 x MIC of Compound 46",0.25 µg/mL
same,MIC,"[4]; NCTC13616, NCTC 13616 adapted to 4 x MIC of Compound 50",0.5 µg/mL
same,MIC,"[4]; NCTC13616, NCTC 13616 adapted to 4 x MIC of Compound 51",1 µg/mL
